# Experimental data from PMC9011219 (Annals of Translational Medicine, 2022).
# Experiments:
# [1] = molecular target: BuChE (Equus caballus, UniProt P81908); test: Ellman assay; assay type: biochemical
# [2] = molecular target: AChE (Electrophorus electricus, UniProt O42275); test: Ellman assay; assay type: biochemical
# Chain of AChE (O42275 24-633): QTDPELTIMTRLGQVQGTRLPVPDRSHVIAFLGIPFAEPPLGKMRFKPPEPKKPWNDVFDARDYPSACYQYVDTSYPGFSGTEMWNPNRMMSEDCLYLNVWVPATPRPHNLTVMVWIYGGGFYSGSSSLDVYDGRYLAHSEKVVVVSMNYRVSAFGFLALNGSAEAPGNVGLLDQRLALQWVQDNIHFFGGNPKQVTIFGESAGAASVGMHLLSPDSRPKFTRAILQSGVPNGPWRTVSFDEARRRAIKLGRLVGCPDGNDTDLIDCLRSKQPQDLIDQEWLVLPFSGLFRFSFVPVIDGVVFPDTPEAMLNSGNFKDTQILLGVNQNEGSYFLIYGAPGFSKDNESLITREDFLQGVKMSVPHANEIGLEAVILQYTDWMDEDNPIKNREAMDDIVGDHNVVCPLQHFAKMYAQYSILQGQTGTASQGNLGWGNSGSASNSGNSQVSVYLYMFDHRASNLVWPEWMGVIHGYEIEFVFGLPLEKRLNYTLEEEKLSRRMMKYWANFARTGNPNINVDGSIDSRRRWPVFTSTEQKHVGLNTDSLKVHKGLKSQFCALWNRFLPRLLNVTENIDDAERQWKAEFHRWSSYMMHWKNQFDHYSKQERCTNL
# Chain of BuChE (P81908 whole entry): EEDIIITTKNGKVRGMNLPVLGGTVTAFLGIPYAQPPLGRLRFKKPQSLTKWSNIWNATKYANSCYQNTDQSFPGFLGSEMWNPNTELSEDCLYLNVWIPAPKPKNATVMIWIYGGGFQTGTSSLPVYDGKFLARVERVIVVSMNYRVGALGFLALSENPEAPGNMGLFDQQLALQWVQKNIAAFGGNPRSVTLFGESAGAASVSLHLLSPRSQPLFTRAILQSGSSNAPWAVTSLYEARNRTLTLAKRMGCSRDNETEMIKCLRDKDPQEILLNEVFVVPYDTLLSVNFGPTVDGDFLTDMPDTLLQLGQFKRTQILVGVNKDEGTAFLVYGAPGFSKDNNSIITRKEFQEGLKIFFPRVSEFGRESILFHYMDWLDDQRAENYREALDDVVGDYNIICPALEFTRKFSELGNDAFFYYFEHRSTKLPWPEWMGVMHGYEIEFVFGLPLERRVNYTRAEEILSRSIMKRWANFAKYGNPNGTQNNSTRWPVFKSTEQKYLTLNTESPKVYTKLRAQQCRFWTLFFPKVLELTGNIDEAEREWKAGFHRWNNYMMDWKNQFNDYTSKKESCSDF
SMILES,IC50 [1] [µM],IC50 [2] [µM]
"COc1ccc2[nH]cc(CCNc3cccc4cccnc34)c2c1 [c2, N-(2-(5-methoxy-1H-indol-3-yl)ethyl) quinolin-8-amine]",4.5 ± 0.3,–
"O=C(NCCc1c[nH]c2ccccc12)Nc1cccc2cccnc12 [a1, 1-(2-(1H-indol-3-yl)ethyl)-3-(quinolin-8-yl) urea]",10.3 ± 0.7,–
"O=C(NCCc1c[nH]c2ccc(O)cc12)Nc1cccc2cccnc12 [a3, 1-(2-(5-hydroxy-1H-indol-3-yl)ethyl)-3-(quinolin-8-yl) urea]",8.78 ± 0.3,36.3 ± 0.7
"O=C(CNc1cccc2cccnc12)NCCc1c[nH]c2ccccc12 [b1, N-(2-(1H-indol-3-yl)ethyl)-2-(quinolin-8-ylamino) acetamide]",–,11.2 ± 0.4
"CCN(C)C(=O)Oc1ccc2[nH]cc(CCNC(=O)CNc3cccc4cccnc34)c2c1 [b5, 3-(2-(2-(quinolin-8-ylamino)acetamido)ethyl)-1H-indol-5-yl ethyl (methyl) carbamate]",0.8 ± 0.1,13.7 ± 0.6
"c1cnc2c(NCCc3c[nH]c4ccccc34)cccc2c1 [c1, N-(2-(1H-indol-3-yl)ethyl) quinolin-8-amine]",13.5 ± 0.4,32.7 ± 1.4
"CN(C)C(=O)Oc1ccc2[nH]cc(CCNC(=O)CNc3cccc4cccnc34)c2c1 [b4, 3-(2-(2-(quinolin-8-ylamino)acetamido)ethyl)-1H-indol-5-yl dimethylcarbamate]",0.9 ± 0.1,11.2 ± 0.3
"CCN(C)C(=O)Oc1ccc2[nH]cc(CCNc3cccc4cccnc34)c2c1 [c5, 3-(2-(quinolin-8-ylamino)ethyl)-1H-indol-5-yl ethyl (methyl) carbamate]",1.1 ± 0.1,25.1 ± 1.7
"CCN(C)C(=O)Oc1ccc2[nH]cc(CCNC(=O)Nc3cccc4cccnc34)c2c1 [a5, 3-(2-(3-(quinolin-8-yl)ureido)ethyl)-1H-indol-5-yl ethyl (methyl) carbamate]",2.6 ± 0.4,–
"COc1ccc2[nH]cc(CCNC(=O)Nc3cccc4cccnc34)c2c1 [a2, 1-(2-(5-methoxy-1H-indol-3-yl)ethyl)-3-(quinolin-8-yl) urea]",–,29.2 ± 1.2
"CN(C)C(=O)Oc1ccc2[nH]cc(CCNC(=O)Nc3cccc4cccnc34)c2c1 [a4, 3-(2-(3-(quinolin-8-yl)ureido)ethyl)-1H-indol-5-yl dimethylcarbamate]",3.3 ± 0.2,35.6 ± 0.6
"Oc1ccc2[nH]cc(CCNc3cccc4cccnc34)c2c1 [c3, 3-(2-(quinolin-8-ylamino)ethyl)-1H-indol-5-ol]",4.3 ± 0.4,–
"CN(C)C(=O)Oc1ccc2[nH]cc(CCNc3cccc4cccnc34)c2c1 [c4, 3-(2-(quinolin-8-ylamino)ethyl)-1H-indol-5-yl dimethylcarbamate]",0.9 ± 0.1,–
"COc1ccc2[nH]cc(CCNC(=O)CNc3cccc4cccnc34)c2c1 [b2, N-(2-(5-methoxy-1H-indol-3-yl)ethyl)-2-(quinolin-8-ylamino) acetamide]",–,13 ± 0.2
"O=C(CNc1cccc2cccnc12)NCCc1c[nH]c2ccc(O)cc12 [b3, N-(2-(5-hydroxy-1H-indol-3-yl)ethyl)-2-(quinolin-8-ylamino) acetamide]",–,4.34 ± 0.1
